Source: patent US20230390267A1, “TREATMENT REGIMENS FOR EARLY IDIOPATHIC PARKINSON'S DISEASE” (BIAL - PORTELA & CA., S.A., priority 2020, published 2023)
Like-named read-outs stand apart in the source and are kept apart here.

Columns and labels:
[1] = oral opicapone with levodopa; evident 24 hours after drug administration; cited from earlier work
[2] = adjunct opicapone to levodopa/benserazide, cited from earlier work
[3] = cited from earlier work
[4] = test system: PD patients with motor fluctuations; conditions: cited from earlier work
erythrocyte COMT = conditions: cynomolgus monkey; cited from earlier work
[5] = test system: patients with early idiopathic Parkinson's disease treated with levodopa/DDCI, with no signs of motor complications; conditions: human, in vivo, 24 weeks
From the text: The term “treatment-emergent adverse event” is defined as any event not present before exposure to the study drug or any event already present that worsens in either intensity or frequency after first intake of study drug until 2 weeks after last intake of the study drug.
The factors evaluated include: • Treatment-emergent adverse events (TEAEs) including serious adverse events (SAEs) • Laboratory safety tests (biochemistry, hematology, coagulation and urinalysis) • Physical and neurological examinations • Vital signs • 12-lead ECG readings • Columbia-Suicide Severity Rating Scale (C-SSRS) • Modified Minnesota Impulsive Disorders Interview (mMIDI)

COMT activity in brain = conditions: cited from earlier work
[6] = test system: PD patients with motor fluctuations; conditions: cited from earlier work; for mean treatment effect versus placebo on absolute daily OFF-time: double-blind
[7] = test system: patients who switched from entacapone to opicapone or had lack of efficacy or adverse events with entacapone; conditions: patients who continued with opicapone beyond 6 months; cited from earlier work
[8] = test system: patients with early idiopathic Parkinson's disease treated with levodopa/DDCI, with no signs of motor complications; assay: EPSILON Phase III double-blind placebo-controlled study, efficacy; type: in vivo, human
From the text: The primary endpoint was the change from baseline to end of double-blind period in MDS-UPDRS Part III (motor) scores, and secondary outcomes assessed non-motor symptoms, quality of life and global clinical impressions of change.
Subjects were between 30 and 80 years of age, inclusive, diagnosed with early idiopathic Parkinson's disease according to the United Kingdom Parkinson's Disease Society Brain Bank Clinical Diagnostic Criteria within the previous 5 years, with disease severity stage 1-2.5 (according to modified Hoehn & Yahr staging) and a MDS-UPDRS Part III score>20. Alternatively, the subjects were diagnosed with early idiopathic Parkinson's disease according to the […] within the previous 5 years, with disease severity stage 1-2.5 (according to modified Hoehn & Yahr staging) and a MDS-UPDRS Part III score>20.
322 subjects completed the double-blind phase (FIG. 10).
Study treatment was administered in combination with the subject's existing treatment of levodopa/DDCI.
The primary efficacy parameter, change from baseline (Visit 2) in MDS-UPDRS Part III total score at the end of the double-blind period (Visit 9), was analyzed using a Mixed Model Repeated Measures (MMRM) approach with fixed effects for baseline, center/country, (randomized) treatment, visit, treatment by visit interaction and baseline by visit interaction, and subject as a random effect. Difference between treatment groups (opicapone versus placebo) was estimated from the model.
A similar MMRM analysis used for the primary endpoint was used for relevant secondary efficacy endpoints in the double-blind period. The secondary endpoints included: • Change from baseline (Visit 2) to post-baseline visits during the double-blind trial in: • MDS-UPDRS scores: Parts I, II, III and IV, and Part II+III total • Modified Hoehn & Yahr staging total score during maximum ‘ON’ response • Schwab and England scale score • Parkinson's Disease Sleep Scale 2 (PDSS-2) total score • MDS-Non-motor Symptom Scale (MDS-NMSS) total and subdomain scores • Parkinson's Disease Questionnaire (PDQ-39) total and subdomain scores • 9-item Wearing-off questionnaire (WOQ9) total and sub-section (motor and non-motor) scores • Clinical Global Impression of Improvement (CGI-I) • Patient's Global Impression of Improvement (PGI-I)
The proportion of subjects with an improvement from baseline in CGI-I (preferably relative to before the beginning of treatment) and PGI-I (preferably relative to their admission to the study) scores at the end of the double blind period (Visit 9) endpoint was analysed using logistic regression, with (randomized) treatment included in the model.

[9] = test system: MPTP treated parkinsonian primates; conditions: in vivo; cited from earlier work
[10] = test system: PD patients with motor fluctuations (Japanese population); conditions: p<0.05, cited from earlier work

Cc1c(Cl)c(C)[n+]([O-])c(Cl)c1-c1noc(-c2cc(O)c(O)c([N+](=O)[O-])c2)n1 [opicapone, 2,5-dichloro-3-[5-(3,4-dihydroxy-5-nitrophenyl)-1,2,4-oxadiazol-3-yl]-4,6-dimethylpyridine 1-oxide]
brain levodopa levels [1]: sustained increase in brain levodopa levels
increase of levodopa systemic exposure ([2]; Cmax not changed): 2 fold
reduction of 3-O-methyldopa (3-OMD) exposure and Cmax [2]: up to 7 fold
increase of minimum plasma concentration (Cmin) for individual levodopa doses ([3]; human, in vivo): up to 2.6 fold
effect on levodopa systemic exposure and peak-to-trough fluctuations ([3]; once daily opicapone 50 mg, levodopa given every 3 and 4 hours): increased systemic exposure to levodopa
mean improvement in NMSS total score ([4]; 1-year open-label endpoint): −4.2
change in NMSS sleep/fatigue score ([4]; opicapone 50 mg dose, vs −0.5 with placebo): −1.2 points
reduction in erythrocyte COMT activity (erythrocyte COMT): ≤ 85%
TEAE COVID-19; % [5]: (8.5) %
TEAE COVID-19; n [5]: 15
effect on COMT activity in brain (COMT activity in brain): does not appear to have any effect
OFF-time change from baseline at the end of the open-label phase ([6]; group that switched from placebo to opicapone): 114.7 min
mean treatment effect versus placebo on absolute daily OFF-time ([6]; opicapone 25 mg, p=0.0106): -35.1 min
OFF-time change from baseline at the end of the open-label phase ([6]; opicapone 50 mg throughout double-blind and open-label treatment): -141.1 min
mean treatment effect versus placebo on absolute daily OFF-time ([6]; opicapone 50 mg, p<0.0001): -58.1 min
placebo-adjusted reduction of OFF time ([6]; opicapone 50 mg, onset of motor fluctuations within the previous 2 years, p=0.0003): -68.5 min
placebo-adjusted mean reduction of OFF time ([6]; opicapone 50 mg, patients only taking levodopa at baseline, p=0.02): -65.6 min
placebo-adjusted reduction of OFF time ([6]; opicapone 50 mg, patients taking less than 600 mg of levodopa per day, p=0.0005): -75.5 min
mean reduction in OFF time measured by interview [7]: −2 hours per day
MDS-UPDRS Part III total score, change from baseline, LS mean, estimates from MMRM ([8]; OPC 50 mg once daily + L-DOPA/DDCI, Week 24): −6.5
MDS-UPDRS Part III total score, Change from Baseline, Mean ([8]; OPC 50 mg once daily + L-DOPA/DDCI, baseline to 24 weeks): −5.8
MDS-UPDRS Part III total score, Week 24, Mean ([8]; OPC 50 mg once daily + L-DOPA/DDCI, double-blind, Week 24, N = 176): 27.2
MDS-UPDRS Part III total score, LS Mean Diff. (SE) vs placebo, MMRM ([8]; OPC 50 mg vs placebo, Week 2): −0.8 (0.8)
MDS-UPDRS Part II + III total score, LS Mean Diff. (SE) vs placebo ([8]; OPC 50 mg vs placebo, Week 4): −1.4 (0.9)
MDS-UPDRS Part II total score, LS Mean Diff. (SE) vs placebo ([8]; OPC 50 mg vs placebo, Week 4): −0.2 (0.3)
MDS-UPDRS Part III total score, LS Mean Diff. (SE) vs placebo, MMRM ([8]; OPC 50 mg vs placebo, Week 4): −1.2 (0.8)
MDS-UPDRS Part II + III total score, LS Mean Diff. (SE) vs placebo ([8]; OPC 50 mg vs placebo, Week 12): −1.7 (1.06)
MDS-UPDRS Part II total score, LS Mean Diff. (SE) vs placebo ([8]; OPC 50 mg vs placebo, Week 12): −0.2 (0.4)
MDS-UPDRS Part III total score, LS Mean Diff. (SE) vs placebo, MMRM ([8]; OPC 50 mg vs placebo, Week 12): −1.7 (0.9)
MDS-UPDRS Part I total score, LS Mean Diff. (SE) vs placebo ([8]; OPC 50 mg vs placebo, Week 24): −0.2 (0.4)
MDS-UPDRS Part II + III total score, LS Mean Diff. (SE) vs placebo ([8]; OPC 50 mg vs placebo, Week 24): −2.8 (1.3)
MDS-UPDRS Part II total score, LS Mean Diff. (SE) vs placebo ([8]; OPC 50 mg vs placebo, Week 24): −0.7 (0.4)
MDS-UPDRS Part III total score, LS Mean Diff. (SE) vs placebo, MMRM ([8]; OPC 50 mg vs placebo, Week 24): −2.2 (0.9)
MDS-UPDRS Part IV total score, LS Mean Diff. (SE) vs placebo ([8]; OPC 50 mg vs placebo, Week 24): −0.11 (0.1)
PDQ-39 total score, LS Mean Diff. (SE) vs placebo ([8]; OPC 50 mg vs placebo, Week 24): −0.26 (0.77)
PDSS-2 total score, LS Mean Diff. (SE) vs placebo ([8]; OPC 50 mg vs placebo, Week 24): −1.5 (0.7)
MDS-UPDRS Part III total score, Change to Week 2, LS mean ([8]; OPC 50 mg, Week 2): −4.6
MDS-UPDRS Part II + III total score, Change to Week 4, LS mean ([8]; OPC 50 mg, Week 4): −7.3
MDS-UPDRS Part II total score, Change to Week 4, LS mean ([8]; OPC 50 mg, Week 4): −0.8
MDS-UPDRS Part III total score, Change to Week 4, LS mean ([8]; OPC 50 mg, Week 4): −6.0
MDS-UPDRS Part II + III total score, Change to Week 12, LS mean ([8]; OPC 50 mg, Week 12): −7.4
MDS-UPDRS Part II total score, Change to Week 12, LS mean ([8]; OPC 50 mg, Week 12): −0.7
MDS-UPDRS Part III total score, Change to Week 12, LS mean ([8]; OPC 50 mg, Week 12): −6.2
MDS-UPDRS Part I total score, change from baseline, LS mean, MMRM ([8]; OPC 50 mg, Week 24): 0.4
MDS-UPDRS Part II + III total score, change from baseline, LS mean, MMRM ([8]; OPC 50 mg, Week 24): −7.4
MDS-UPDRS Part II total score, change from baseline, LS mean, MMRM ([8]; OPC 50 mg, Week 24): −0.4
MDS-UPDRS Part IV total score, change from baseline, LS mean (SE), MMRM ([8]; OPC 50 mg, Week 24): 0.3 (0.1)
NMSS, change from baseline, LS mean, MMRM ([8]; OPC 50 mg, Week 24): −1.4
PDQ-39 total score, change from baseline, LS mean, MMRM ([8]; OPC 50 mg, Week 24): 0.42
PDSS-2 total score, change from baseline, LS mean, MMRM ([8]; OPC 50 mg, Week 24): 0.0
MDS-UPDRS Part I total score, Week 24, Mean ([8]; OPC 50 mg, Week 24, N = 176): 6.7
MDS-UPDRS Part II + III total score, Week 24, Mean ([8]; OPC 50 mg, Week 24, N = 176): 35.7
MDS-UPDRS Part II total score, Week 24, Mean ([8]; OPC 50 mg, Week 24, N = 176): 8.5
MDS-UPDRS Part IV total score, Week 24, Mean (SD) ([8]; OPC 50 mg, Week 24, N = 176): 0.2 (0.8)
NMSS, Week 24, Mean ([8]; OPC 50 mg, Week 24, N = 176): 15.9
PDQ-39 total score, Week 24, Mean ([8]; OPC 50 mg, Week 24, N = 176): 15.4
PDSS-2 total score, Week 24, Mean ([8]; OPC 50 mg, Week 24, N = 176): 11.6
MDS-UPDRS Part I total score, Change from Baseline, Mean ([8]; OPC 50 mg, baseline to week 24): 0.3
MDS-UPDRS Part II + III total score, Change from Baseline, Mean ([8]; OPC 50 mg, baseline to week 24): −6.2
MDS-UPDRS Part II total score, Change from Baseline, Mean ([8]; OPC 50 mg, baseline to week 24): −0.4
MDS-UPDRS Part IV total score, Change from Baseline, Mean (SD) ([8]; OPC 50 mg, baseline to week 24): 0.2 (0.8)
NMSS, Change from Baseline, Mean ([8]; OPC 50 mg, baseline to week 24): −3.0
PDQ-39 total score, Change from Baseline, Mean ([8]; OPC 50 mg, baseline to week 24): −0.29
PDSS-2 total score, Change from Baseline, Mean ([8]; OPC 50 mg, baseline to week 24): −0.4
symptomatic reduction in MDS-UPDRS Part III total score compared to placebo ([8]; baseline to end of double-blind period, p=0.010): 2.2 points
symptomatic reduction in MDS-UPDRS Part II+III total score compared to placebo ([8]; baseline to end of double-blind period, p=0.036): 2.8 points
magnitude of the changes in MDS-UPDRS Part I, MDS-UPDRS Part IV or PDQ-39 total scores ([8]; both groups (opicapone and placebo), double-blind period): less than 0.4 points
NMSS Domain 7 (urinary) subdomain score vs placebo ([8]; especially at Week 12 and Week 24 (p<0.05)): Significant improvements
proportion of patients who reported motor complications ([8]; opicapone 50 mg, end of 24-week double-blind period): 5.5%
proportion of patients reporting an improvement in their clinical condition (PGI-I score) ([8]; opicapone 50 mg, end of double-blind period, p=0.026 vs placebo): 57.9%
proportion of patients with an improvement in clinical condition assessed by a clinician (CGI-I score) ([8]; opicapone 50 mg, end of double-blind period, p=0.493 vs placebo): 50.3%
WOQ-9: proportion of subjects whose dexterity improved post-study medication ([8]; opicapone treated group): 56.6%
WOQ-9: proportion of subjects whose muscle cramping improved post-study medication ([8]; opicapone treated group): 28.3%
WOQ-9: proportion of subjects whose slowness of movement improved post-study medication ([8]; opicapone treated group): 66.2%
WOQ-9: proportion of subjects whose stiffness improved post-study medication ([8]; opicapone treated group): 56.9%
WOQ-9: proportion of subjects whose tremors improved post-study medication ([8]; opicapone treated group): 65.5%
motor function in MPTP treated parkinsonian primates [9]: improvement in motor function
placebo adjusted reduction in OFF time ([10]; opicapone 25 mg dose group): -0.74 h
placebo adjusted reduction in OFF time ([10]; opicapone 50 mg dose): -0.62 h
